# Measurements as given in US8486900B2, “Method for preparing a Centella asiatica extract rich in madecassoside and in terminoloside” (Bayer Consumer Care AG, priority 2002, dated 2013).
# Columns and labels:
# PGE-2 = assay: PMA-induced release of PGE-2 by human keratinocytes; type: cell-based; settings: for PGE-2 (extracellular): Example 12, K02-1H6, PMA 10 ng/ml, 48 h + 24 h
# Protocol: The principle of the assay is based on evaluating the production of pro-inflammatory cytokines by human keratinocytes in response to an irritative stress. […]
# Given the lack of effect of IFN-γ on the production and release of PGE-2, the anti-inflammatory effect of the active agents was studied on normal human keratinocytes (strain K02-1H6) stimulated with PMA. Each active agent was tested at 4 concentrations:
# 1. Treatment of the cells, for 48 h, with the product being studied before induction of the irritative stress.
# 2. Induction of the irritative stress: PMA (10 ng/ml).
# 3. Incubation of the “activated” cells, for 24 h, in the presence of the product being studied.
# 4. Assay of PGE-2 (extracellular) and assay of cellular proteins.
# Tables 37 to 39 below group together the amounts of PGE-2 (pg/μg prot.) obtained after activation of the cells (+PMA), and also the basal amounts (−PMA). The PMA-induced production of PGE-2 and the anti-inflammatory activity (AIA) were calculated, for each concentration, according to: PGE-2 production=[(PGE-2(+PMA)−PGE-2(−PMA)] AIA=[(PGE-2 production(control cells)−PGE-2 production(treated cells))/PGE-2 production(control cells)]×100
# [1] = tested on: HaCaT human keratinocytes; assay: Cytotoxicity, Neutral Red colorimetric assay on HaCaT human keratinocytes; type: cell-based; settings: for Viability (24 h), % of control / Viability (72 h), % of control: Example 12, HaCaT
# Protocol: The cytotoxicity was studied on HaCaT human keratinocytes seeded into 96-well plates at a rate of 20×10^3, broad range, and 10×10^3, limited range, cells per well. The cell viability is evaluated by means of a colorimetric assay with Neutral Red. Neutral Red is a weakly cationic dye that penetrates cell membranes by means of a nonionic diffusion phenomenon and binds intracellularly to the phosphate and/or carboxylic groups of the lysosomal matrix. Modifications in the accumulation and retention of Neutral Red are observed when the cell membranes are damaged. The optical density of the solution obtained after incubation of the cells in the presence of Neutral Red is therefore proportional to the number of living cells.
# A broad range of 9 concentrations, from 0.001 to 1 mg/ml, was initially tested. The various test solutions were prepared in DMEM medium, […], supplemented with 10 vol % of FCS, fetal calf serum. […] The cell viability was evaluated by means of a Neutral Red colorimetric assay, after 72 hours of incubation. […] From 1 mg/ml, a slight dose-dependent cytotoxic effect is observed. […]
# A second limited range of between 0.075 and 5 mg/ml was tested. […] The cell viability was evaluated by means of a Neutral Red colorimetric assay, after 72 hours of incubation. The results obtained were similar to those recorded in the absence of DMSO.
# [2] = tested on: human keratinocytes, strain K02-1H4; assay: Cytotoxicity, Neutral Red assay on human keratinocytes strain K02-1H4; type: cell-based; settings: for Viability (72 h), % of control: Example 12, K02-1H4, 72 h
# Protocol: In addition, added to the cytotoxicity study was an assay on human keratinocytes, strain K02-1H4, in order to confirm that the concentrations were nontoxic on the target cells.
# […] […] The cell viability was determined by means of a Neutral Red assay.
# Added to the cytotoxicity study was an assay on human keratinocytes (strain K02-1H4) in order to confirm the nontoxicity of the concentrations on the “target” cells. Table 24 below groups together all the results (cell viability as % of control).
smiles,measurement,setting,value
"CC1OC(O[C@@H]2C(CO)OC(OCC3OC(OC(=O)C4CC(C)(C)CC5C6=CCC7C(CC(O)C8C(C)(CO)C(O)C(O)CC78C)C6(C)CCC45)[C@@H](O)C(O)[C@@H]3O)[C@@H](O)C2O)[C@@H](O)C(O)[C@H]1O (stereo partly drawn) [Terminoloside, 1-[O-α-L-rhamnopyranosyl-(1-4)-O-β-glucopyranosol-(1-6)]-O-β-D-glucopyranose 2α,3β,6β,23-tetrahydroxyolea-12-en-28-oate]",PGE-2 production (+PMA minus −PMA),"PGE-2; Example 12, 0.1 mg/ml",494.2
same,PGE-2 production (+PMA minus −PMA),"PGE-2; Example 12, 0.25 mg/ml",441.0
same,PGE-2 production (+PMA minus −PMA),"PGE-2; Example 12, 0.5 mg/ml",279.9
same,PGE-2 production (+PMA minus −PMA),"PGE-2; Example 12, 1 mg/ml",115.2
same,PGE-2 (extracellular),PGE-2; 0.1 mg/ml,660.0 pg/μg prot
same,PGE-2 (extracellular),PGE-2; 0.25 mg/ml,606.80 pg/μg prot
same,PGE-2 (extracellular),PGE-2; 0.5 mg/ml,445.7 pg/μg prot
same,PGE-2 (extracellular),PGE-2; 1 mg/ml,321.0 pg/μg prot
same,"Anti-inflammatory activity (%), PGE-2","PGE-2; Example 12, PMA 10 ng/ml, 1 mg/ml",68.6%
same,inhibition at 100 µg/mL,"PGE-2; Homo sapiens, Keratinocyte, Example 12, PMA 10 ng/ml, 0.1 mg/ml, read-out: Anti-inflammatory activity (%), PGE-2",0%
same,inhibition at 250 µg/mL,"PGE-2; Homo sapiens, Keratinocyte, Example 12, PMA 10 ng/ml, 0.25 mg/ml, read-out: Anti-inflammatory activity (%), PGE-2",10.8%
same,inhibition at 500 µg/mL,"PGE-2; Homo sapiens, Keratinocyte, Example 12, PMA 10 ng/ml, 0.5 mg/ml, read-out: Anti-inflammatory activity (%), PGE-2",43.4%
same,inhibition at 1000 µg/mL,"PGE-2; Homo sapiens, Keratinocyte, Example 12, PMA 10 ng/ml, 1 mg/ml, read-out: Anti-inflammatory activity (%), PGE-2",69%
same,"Viability (24 h), % of control",[1]; 0.05 mg/ml,105%
same,"Viability (24 h), % of control",[1]; 0.1 mg/ml,104%
same,"Viability (24 h), % of control",[1]; 0.25 mg/ml,105%
same,"Viability (24 h), % of control",[1]; 0.5 mg/ml,105%
same,"Viability (24 h), % of control",[1]; 1 mg/ml,104%
same,"Viability (24 h), % of control",[1]; 2.5 mg/ml,100%
same,"Viability (24 h), % of control",[1]; 5 mg/ml,81%
same,"Viability (24 h), % of control",[1]; 10 mg/ml,73%
same,"Viability (72 h), % of control",[1]; 0.1 mg/ml,100%
same,"Viability (72 h), % of control",[1]; 0.25 mg/ml,101%
same,"Viability (72 h), % of control",[1]; 0.5 mg/ml,101%
same,"Viability (72 h), % of control",[1]; 0.75 mg/ml,103%
same,"Viability (72 h), % of control",[1]; 1 mg/ml,102%
same,"Viability (72 h), % of control",[1]; 2.5 mg/ml,103%
same,"Viability (72 h), % of control",[1]; 5 mg/ml,93%
same,"Viability (72 h), % of control",[1]; 7.5 mg/ml,86%
same,"Viability (72 h), % of control",[1]; 10 mg/ml,69%
same,concentrations inducing no significant modification of the cell response to Neutral Red,"[1]; HaCaT, 24 h of contact",2500 µg/mL
same,"Viability (72 h), % of control",[2]; 0.25 mg/ml,101%
same,"Viability (72 h), % of control",[2]; 0.5 mg/ml,103%
same,"Viability (72 h), % of control",[2]; 0.75 mg/ml,103%
same,"Viability (72 h), % of control",[2]; 1.0 mg/ml,102%
same,"Viability (72 h), % of control",[2]; 2.5 mg/ml,99%
same,"Viability (72 h), % of control",[2]; 5 mg/ml,96%
same,"Viability (72 h), % of control",[2]; 10 mg/ml,69%
same,nontoxic concentrations,"[2]; K02-1H4, 72 h of incubation",less than or equal to 2.5 mg/ml
same,solubility,Solubility,water-soluble
